The record followed here is US11261183B2, “Sulfoximine glycosidase inhibitors” (Asceneuron SA, priority 2016, dated 2022).

For data set [1], the target named is Human O-GlcNAcase (His-Tagged hOGA) (Homo sapiens (Human), UniProt O60502). In words: Human O-GlcNAcase enzyme inhibition assay. Format: biochemical. Particulars: His-Tagged hOGA 20 nM, FL-GlcNAc 10 μM, 60 min, room temperature, pH 6.5; read-out: Enzymatic OGA IC50. As for the experimental part: Example B01: Human O-GlcNAcase enzyme inhibition assay
5 μl of the appropriate concentration of a solution of inhibitor in McIlvaine's Buffer (pH 6.5) in 2% DMSO (for a dose response curve calculation) is added into each well of a 384-well plate (Greiner, 781900). Then, 20 nM of His-Tagged hOGA and 10 μM of FL-GlcNAc (Fluorescein mono-beta-D-(2-deoxy-2-N-acetyl) glucopyranoside; Marker Gene Technologies Inc, M1485) were added to the 384-well plate for a final volume of 20 μl. After incubation for 60 min at room temperature, the reaction was terminated by the addition of 10 μL of stop buffer (200 mM glycine, pH 10.75).

A short description of data set [2]: Protein binding in mice plasma using Rapid Equilibrium Dialysis. Format: in vitro ADME, CD1 mice. Particulars: 37° C.; for fraction unbound at 5 h, 1 µM: male, CD1, mouse, plasma, pH 7.4, CD1 mouse plasma. The protocol: Example B04: Protein binding in mice plasma using Rapid Equilibrium Dialysis
• CD1 Mice Plasma: pooled male, K2-EDTA ([…]2, Bioreclammation, USA • Phosphate Buffered Saline (1×PBS), pH 7.4, 100 mM (Sigma, Cat No. P4417) • RED inserts (Pierce, Cat No. 9006, 8 kDa MWCO) • Sample Analysis: LC-MS/MS Methods • Preparation of DMSO Stock Solution
From 20 mM DMSO stock solutions of reference and test compounds, 1 mM DMSO intermediate working solutions are prepared. From 1 mM intermediate working solutions, 100 μM DMSO working solutions are prepared. • Sample Preparation Procedure:
Selected plasma is brought from −20° C. to 37° C. using water bath before its use. Test solution is prepared by adding the DMSO working solution of the reference or test compound (2 μL; 100 μM) to the selected plasma (198 μL). Spiked plasma (200 μl) is transferred to sample compartment of RED insert placed in the teflon plate. 350 μl of 1×PBS is added in the buffer compartment of RED insert. The teflon plate is covered with sealing mat and agitated at 37° C. for 5 hours at 500 RPM in a Thermomixer. After incubation time, an aliquot of plasma (50 μl) from sample compartment is mixed with blank 1×PBS (50 μl). Similarly, an aliquot of buffer (50 μl) from buffer compartment is mixed with blank plasma (50 μl). Quenching solution (200 μL, acetonitrile containing internal standard tolbutamide (0.5 μg/mL)) is added and the resulting solutions are mixed using a vortex mixer and centrifuged (Eppendorf 5415, 13792 g). Supernatants are analyzed using a Mass Spectrometer. The sample (supernatant fraction, 5 μL) is injected into the LC-MS/MS instrument. • Chromatographic Conditions: LC-MS/MS: API 4000 LC-MS/MS Software: Analyst Version 1.6.1 Column Phenomenex Synergy 30*4.6*5μ Column Oven: 40° C. Mode: ESI Positive Injection volume: 5 μl Flow Rate: […] Buffer: 0.1% Formic acid in Water Method: Isocratic Method/Gradient Composition: A) 0.1% Formic acid in Water B) 0.1% Formic acid in Methanol
After the concentration of free drug and total drug has been determined by LCMS/MS, percent plasma protein binding can be calculated as follows:
[formula] Following this protocol, % fraction unbound in plasma from different species can be also measured.
In general terms: In equilibrium dialysis only unbound substance equilibrates across the membrane.

Where only a bound is given, the exact number is not on record here.

Chain of Human O-GlcNAcase (His-Tagged hOGA) (O60502 whole entry): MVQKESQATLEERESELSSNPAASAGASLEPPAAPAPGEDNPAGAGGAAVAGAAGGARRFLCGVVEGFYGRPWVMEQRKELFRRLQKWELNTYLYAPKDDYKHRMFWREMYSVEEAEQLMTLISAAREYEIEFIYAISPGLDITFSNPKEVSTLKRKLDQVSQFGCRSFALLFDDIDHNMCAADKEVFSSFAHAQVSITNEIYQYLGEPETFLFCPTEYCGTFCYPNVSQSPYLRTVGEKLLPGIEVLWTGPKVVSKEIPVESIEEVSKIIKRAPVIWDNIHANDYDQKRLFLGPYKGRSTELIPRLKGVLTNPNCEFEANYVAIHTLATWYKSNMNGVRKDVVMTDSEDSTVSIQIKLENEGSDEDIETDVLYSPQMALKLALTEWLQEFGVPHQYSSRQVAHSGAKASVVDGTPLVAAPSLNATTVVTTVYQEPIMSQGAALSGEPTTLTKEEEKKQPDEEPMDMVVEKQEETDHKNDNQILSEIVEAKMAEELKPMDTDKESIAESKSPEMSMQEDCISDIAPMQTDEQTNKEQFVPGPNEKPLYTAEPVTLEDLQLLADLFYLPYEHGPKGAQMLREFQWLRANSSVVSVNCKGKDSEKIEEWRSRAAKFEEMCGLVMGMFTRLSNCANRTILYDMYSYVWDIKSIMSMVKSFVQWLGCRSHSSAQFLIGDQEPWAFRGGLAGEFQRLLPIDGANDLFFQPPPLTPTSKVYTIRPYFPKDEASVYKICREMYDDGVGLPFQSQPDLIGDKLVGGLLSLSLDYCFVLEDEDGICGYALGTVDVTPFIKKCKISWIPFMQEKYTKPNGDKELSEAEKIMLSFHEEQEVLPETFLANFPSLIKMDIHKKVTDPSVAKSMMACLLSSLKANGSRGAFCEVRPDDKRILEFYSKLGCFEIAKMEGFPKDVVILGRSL

As for `Cc1nc2cc(C(C)N3CCN(c4ncc(S(C)(=N)=O)cn4)CC3)ccc2s1` (racemic) [Example 42, Imino(methyl)(2-(4-(1-(2-methylbenzo[d]thiazol-5-yl)ethyl)piperazin-1-yl)pyrimidin-5-yl)-λ^6-sulfanone], the IC50 (as a rule, the concentration needed to halve the response being measured) in data set [1] is below 50 nM. For the same molecule, the fraction unbound (as a rule, the share of the substance not bound to proteins or other matrix) at 5 h, 1 µM in data set [2] was 0.101.

For `CC(c1ccc2c(c1)OCC2)N1CCN(c2ncc(S(C)(=N)=O)cn2)CC1` (racemic) [Example 1, (2-(4-(1-(2,3-dihydrobenzofuran-6-yl)ethyl)piperazin-1-yl)pyrimidin-5-yl)(imino)(methyl)λ^6-sulfanone], in data set [1], the IC50 was below 50 nM. For the same molecule, the free fraction (fraction unbound) at 5 h, 1 µM in data set [2] was 0.393.

Turning to `CCN=S(C)(=O)c1cnc(N2CCN(C(C)c3ccc4scnc4c3)CC2)nc1` (racemic) [Example 27], the half-maximal inhibitory concentration (IC50) in data set [1] is below 50 nM. Besides, in data set [2], the fraction unbound at 5 h, 1 µM was found to be 0.186.

In the case of `CCCS(=N)(=O)c1cnc(N2CCN(C(C)c3ccc4scnc4c3)CC2)nc1` (racemic) [Example 24, (2-(4-(1-(benzo[d]thiazol-5-yl)ethyl)piperazin-1-yl)pyrimidin-5-yl)(imino)(propyl)-λ^6-sulfanone], in data set [1], the IC50 was below 50 nM. For the same molecule, in data set [2], the free fraction (fraction unbound) at 5 h, 1 µM turned out to be 0.134.

`CC(c1ccc2c(c1)OCC2)N1CCN(c2ncc(S(C)(=N)=O)cn2)CC1` (single isomer, unassigned) [Example 14]: the IC50 in data set [1] was below 50 nM. Also, the “% fraction unbound in mouse plasma” value in data set [2] (CD1 mouse plasma, 5 hours) is 35.63%.

As for `COCCN=S(C)(=O)c1cnc(N2CCN(C(C)c3ccc4scnc4c3)CC2)nc1` (racemic) [Example 29, (2-(4-(1-(benzo[d]thiazol-5-yl)ethyl)piperazin-1-yl)pyrimidin-5-yl)((2-methoxyethyl)imino)(methyl)-λ^6-sulfanone], the IC50 in data set [1] is below 50 nM. For the same molecule, in data set [2], the fraction unbound at 5 h, 1 µM was found to be 0.286.

As to `CC(c1ccc2c(c1)OCC2)N1CCN(c2ccc(S(C)(=N)=O)cn2)CC1` (racemic) [Example 7, (6-(4-(1-(2,3-dihydrobenzofuran-6-yl)ethyl)piperazin-1-yl)pyridin-3-yl)(imino)(methyl)-Δ^6-sulfanone], the IC50 in data set [1] was below 50 nM. Also, the fraction unbound at 5 h, 1 µM in data set [2] was 0.294.

As for `CN=S(C)(=O)c1cnc(N2CCN(C(C)c3ccc4scnc4c3)CC2)nc1` (racemic) [Example 25, (2-(4-(1-(benzo[d]thiazol-5-yl)ethyl)piperazin-1-yl)pyrimidin-5-yl)(methyl)(methylimino)-λ^6-sulfanone], the IC50 in data set [1] is below 50 nM. Besides, the unbound share (fraction unbound) at 5 h, 1 µM in data set [2] amounted to 0.211.

On to `CCS(=N)(=O)c1cnc(N2CCN(C(C)c3ccc4scnc4c3)CC2)nc1` (racemic) [Example 23, (2-(4-(1-(benzo[d]thiazol-5-yl)ethyl)piperazin-1-yl)pyrimidin-5-yl)(ethyl)(imino)-λ^6-sulfanone], for which the IC50 in data set [1] was below 50 nM. The free fraction (fraction unbound) at 5 h, 1 µM in data set [2] was 0.215.
